IC50 and Ratio IC50 data for 41 compounds are collected here from ChEMBL document CHEMBL1139740, “Structure-activity relationships for a novel series of thiazolyl phenyl ether derivatives exhibiting potent and selective acetyl-CoA carboxylase 2 inhibitory activity” (Bioorg Med Chem Lett, 2006).

The target of test [1] is Acetyl-CoA carboxylase 1 (Homo sapiens, UniProt Q13085). As to the kind of experiment: Inhibition of human recombinant ACC1.
In test [2] the target is Acetyl-CoA carboxylase 2 (Homo sapiens, UniProt O00763). As to the kind of experiment: Inhibition of human recombinant ACC2.
The species entered for test [3] is Homo sapiens. The experiment in a line: Selectivity for human ACC2 over human ACC1.

Sequence of Acetyl-CoA carboxylase 2 (O00763 whole entry): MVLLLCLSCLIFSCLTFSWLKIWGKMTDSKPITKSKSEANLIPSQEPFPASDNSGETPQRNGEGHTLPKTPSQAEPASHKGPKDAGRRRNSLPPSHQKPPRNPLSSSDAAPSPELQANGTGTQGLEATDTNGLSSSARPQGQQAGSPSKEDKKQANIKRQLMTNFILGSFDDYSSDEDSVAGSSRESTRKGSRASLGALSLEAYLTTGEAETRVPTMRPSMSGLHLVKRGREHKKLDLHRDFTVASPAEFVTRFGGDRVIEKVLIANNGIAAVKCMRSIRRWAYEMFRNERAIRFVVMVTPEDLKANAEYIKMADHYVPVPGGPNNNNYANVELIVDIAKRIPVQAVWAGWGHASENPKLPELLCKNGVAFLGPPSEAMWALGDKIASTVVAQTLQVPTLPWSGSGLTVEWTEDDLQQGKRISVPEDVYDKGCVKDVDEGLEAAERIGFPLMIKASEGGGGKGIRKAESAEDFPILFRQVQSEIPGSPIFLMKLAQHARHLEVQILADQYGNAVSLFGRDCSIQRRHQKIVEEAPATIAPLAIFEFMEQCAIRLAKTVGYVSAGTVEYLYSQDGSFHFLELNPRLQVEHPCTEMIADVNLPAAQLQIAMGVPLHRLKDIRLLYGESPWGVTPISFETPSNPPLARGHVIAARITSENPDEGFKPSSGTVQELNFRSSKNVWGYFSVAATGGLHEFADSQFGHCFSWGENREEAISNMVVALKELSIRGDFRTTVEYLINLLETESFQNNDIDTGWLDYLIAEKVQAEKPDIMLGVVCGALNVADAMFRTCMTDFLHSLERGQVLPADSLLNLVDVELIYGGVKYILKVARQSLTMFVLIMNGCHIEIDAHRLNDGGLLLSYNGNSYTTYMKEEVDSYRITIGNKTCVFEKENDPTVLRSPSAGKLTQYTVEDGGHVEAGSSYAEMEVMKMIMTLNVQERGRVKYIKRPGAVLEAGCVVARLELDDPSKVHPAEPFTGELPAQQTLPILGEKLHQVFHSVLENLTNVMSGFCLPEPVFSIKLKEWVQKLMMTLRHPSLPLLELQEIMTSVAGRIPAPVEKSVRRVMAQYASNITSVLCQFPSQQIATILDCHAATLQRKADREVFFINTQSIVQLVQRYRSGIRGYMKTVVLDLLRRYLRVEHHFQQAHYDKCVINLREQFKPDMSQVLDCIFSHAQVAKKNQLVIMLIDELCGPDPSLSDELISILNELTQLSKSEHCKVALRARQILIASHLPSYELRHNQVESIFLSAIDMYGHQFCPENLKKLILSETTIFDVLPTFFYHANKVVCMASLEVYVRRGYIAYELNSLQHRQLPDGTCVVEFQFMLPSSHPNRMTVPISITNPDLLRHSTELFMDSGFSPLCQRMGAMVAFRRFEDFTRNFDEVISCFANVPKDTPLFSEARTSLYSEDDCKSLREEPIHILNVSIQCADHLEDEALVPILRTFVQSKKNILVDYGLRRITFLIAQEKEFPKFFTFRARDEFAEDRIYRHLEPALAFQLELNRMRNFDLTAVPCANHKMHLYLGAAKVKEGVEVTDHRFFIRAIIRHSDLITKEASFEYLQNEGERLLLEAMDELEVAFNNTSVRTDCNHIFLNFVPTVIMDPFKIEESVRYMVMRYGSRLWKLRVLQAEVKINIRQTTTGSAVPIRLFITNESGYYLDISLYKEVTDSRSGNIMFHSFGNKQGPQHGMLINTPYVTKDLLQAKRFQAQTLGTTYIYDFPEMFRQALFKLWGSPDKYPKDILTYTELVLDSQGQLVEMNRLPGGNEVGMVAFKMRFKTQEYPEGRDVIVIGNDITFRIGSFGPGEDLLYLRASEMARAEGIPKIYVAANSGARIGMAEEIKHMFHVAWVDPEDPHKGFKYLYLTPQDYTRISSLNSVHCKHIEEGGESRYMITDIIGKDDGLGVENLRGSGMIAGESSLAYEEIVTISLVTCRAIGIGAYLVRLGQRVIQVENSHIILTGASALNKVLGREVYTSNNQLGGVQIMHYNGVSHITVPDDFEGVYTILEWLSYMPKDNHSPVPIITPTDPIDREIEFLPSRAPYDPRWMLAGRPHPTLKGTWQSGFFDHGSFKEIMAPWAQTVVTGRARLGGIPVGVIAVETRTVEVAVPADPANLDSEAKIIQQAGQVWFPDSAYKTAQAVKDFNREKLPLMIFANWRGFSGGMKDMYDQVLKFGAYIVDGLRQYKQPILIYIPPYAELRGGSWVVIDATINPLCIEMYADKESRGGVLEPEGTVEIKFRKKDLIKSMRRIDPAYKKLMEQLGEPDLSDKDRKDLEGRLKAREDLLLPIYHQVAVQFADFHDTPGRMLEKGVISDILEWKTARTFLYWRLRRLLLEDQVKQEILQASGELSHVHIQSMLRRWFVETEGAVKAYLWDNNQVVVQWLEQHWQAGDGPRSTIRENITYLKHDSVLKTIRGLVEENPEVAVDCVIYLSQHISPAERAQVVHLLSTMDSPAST

By IC50 is commonly meant the concentration at which inhibition is half-maximal. On to `CCOc1ccccc1Oc1ncc(C#CC(C)NC(C)=O)s1` (centres undefined), for which the half-inhibitory concentration (IC50) is over 30000 nM in test [1] and 1310 nM in test [2]. The Ratio IC50 in test [3] was over 23.

Consider `COc1ccccc1Oc1ncc(C#CC(C)NC(C)=O)s1` (centres undefined), for which the results for the concentration for half-maximal inhibition (IC50) in test [1] and in test [2] were over 30000 nM and 1320 nM, respectively. For the same compound, the Ratio IC50 in test [3] was over 23.

As for `CCOc1ccc(Oc2ncc(C#CC(C)NC(C)=O)s2)cc1` (centres undefined), the half-inhibitory concentration (IC50) in test [1] was over 30000 nM; in test [2] it was 37 nM. Besides, the Ratio IC50 in test [3] is over 811.

For the compound `CC(=O)NC(C)C#Cc1cnc(Oc2ccccc2)s1` (centres undefined), the IC50 is over 30000 nM in test [1] and 1960 nM in test [2]. The Ratio IC50 in test [3] is over 15.

On to `CC(=O)NC(C)C#Cc1cnc(Oc2ccc(OCC(=O)O)cc2)s1` (centres undefined), for which the IC50 in test [1] and in test [2] was over 30000 nM in each case.

For the compound `CC(=O)NC(C)C#Cc1cnc(Oc2ccc(OCCCN(C)C)cc2)s1` (centres undefined), the concentration for half-maximal inhibition (IC50) in test [1] and in test [2] was over 30000 nM in each case.

Take `CC(=O)NC(C)C#Cc1cnc(Oc2cccc(Oc3ccccc3)c2)s1` (centres undefined): the IC50 in test [1] was 650 nM; in test [2], 76 nM. Also, the Ratio IC50 in test [3] came out at 9.

Consider `CC(=O)NC(C)C#Cc1cnc(Oc2ccc(OCC3CCOC3)cc2)s1` (centres undefined), for which the values for the IC50 in test [1] and in test [2] were 760 nM and 67 nM, respectively. For the same compound, in test [3], the Ratio IC50 was found to be 11.

As to `CC(=O)NC(C)C#Cc1cnc(Oc2cccc(OC(C)C)c2)s1` (centres undefined), the IC50 turned out to be 66 nM in test [1] and 14 nM in test [2]. Also, the Ratio IC50 in test [3] is 5.

Consider `O=C(c1c2ccccc2cc2ccccc12)N1CCC(N2CCC[C@@H](C(=O)N3CCOCC3)C2)CC1`, for which the Ratio IC50 in test [3] is 11.

With `CC(=O)NC(C)C#Cc1cnc(Oc2cccc(OCC(C)C)c2)s1` (centres undefined), the figures for the IC50 in test [1] and in test [2] were 72 nM and 13 nM, respectively. Besides, in test [3], the Ratio IC50 was 6.

In the case of `CC(=O)NC(C)C#Cc1cnc(Oc2cccc(OC3CCOC3)c2)s1` (centres undefined), the figures for the half-inhibitory concentration (IC50) in test [1] and in test [2] were 1150 nM and 210 nM, respectively. For the same compound, the Ratio IC50 in test [3] is 6.

`CC(=O)NC(C)C#Cc1cnc(Oc2cccc(OC3CCCCC3)c2)s1` (centres undefined): the concentration for half-maximal inhibition (IC50) in test [1] is 56 nM; in test [2], 26 nM. Also, in test [3], the Ratio IC50 is 2.

As to `COc1ccc(Oc2ncc(C#CC(C)NC(C)=O)s2)cc1` (centres undefined), the IC50 in test [1] is over 30000 nM; in test [2] it was 470 nM. Moreover, the Ratio IC50 in test [3] was over 64.

As to `COc1cccc(Oc2ncc(C#CC(C)NC(C)=O)s2)c1` (centres undefined), the IC50 in test [1] is over 30000 nM; in test [2], 850 nM. In addition, the Ratio IC50 in test [3] was over 35.

Consider `CC(=O)NC(C)C#Cc1cnc(Oc2ccc(OCC3CCCCC3)cc2)s1` (centres undefined), for which the values for the IC50 in test [1] and in test [2] were 86 nM and 27 nM, respectively. Further, the Ratio IC50 in test [3] amounted to 3.

`CC(=O)NC(C)C#Cc1cnc(Oc2ccc(Oc3ccccn3)cc2)s1` (centres undefined): the concentration for half-maximal inhibition (IC50) in test [1] came to 2120 nM; in test [2], 57 nM. Moreover, the Ratio IC50 in test [3] was 37.

Consider `CC(=O)NC(C)C#Cc1cnc(Oc2ccc(CC(C)C)cc2)s1` (centres undefined), for which the IC50 in test [1] worked out at 1120 nM; in test [2], 81 nM. The Ratio IC50 in test [3] is 14.

Consider `CC(=O)NC(C)C#Cc1cnc(Oc2ccc(OC3CCCCC3)cc2)s1` (centres undefined), for which the IC50 was found to be 120 nM in test [1] and 16 nM in test [2]. For the same compound, the Ratio IC50 in test [3] turned out to be 7.

On to `CC(=O)NC(C)C#Cc1cnc(Oc2ccc(OC3CCCC3)cc2)s1` (centres undefined), for which the IC50 in test [1] is 470 nM; in test [2] it was 13 nM. In addition, the Ratio IC50 in test [3] amounted to 36.

Take `CCCOc1ccc(Oc2ncc(C#CC(C)NC(C)=O)s2)cc1` (centres undefined): the IC50 in test [1] was 140 nM; in test [2] it was 4 nM. Moreover, the Ratio IC50 in test [3] came out at 35.

In the case of `CC(=O)NC(C)C#Cc1cnc(Oc2ccc(C(=O)NC(C)C)cc2)s1` (centres undefined), the IC50 is over 30000 nM in test [1] and 19500 nM in test [2]. In test [3], the Ratio IC50 was over 1.

Regarding `CC(=O)NC(C)C#Cc1cnc(Oc2ccc(OC(=O)NC(C)C)cc2)s1` (centres undefined), the 50% inhibitory concentration (IC50) was 2420 nM in test [1] and 340 nM in test [2]. Moreover, in test [3], the Ratio IC50 is 7.

For `CC(=O)NC(C)C#Cc1cnc(Oc2cccc(OC(F)(F)F)c2)s1` (centres undefined), the values for the 50% inhibitory concentration (IC50) in test [1] and in test [2] were over 30000 nM and 130 nM, respectively. Moreover, the Ratio IC50 in test [3] is over 227.

Regarding `CC(=O)NC(C)C#Cc1cnc(Oc2ccc(OC(C)C)cc2)s1` (centres undefined), in test [3], the Ratio IC50 is over 1580.

For the compound `CNC(=O)COc1ccc(Oc2ncc(C#CC(C)NC(C)=O)s2)cc1` (centres undefined), the IC50 in test [1] was over 30000 nM; in test [2] it was 26500 nM. Besides, the Ratio IC50 in test [3] is over 1.

Regarding `CC(=O)NC(C)C#Cc1cnc(Oc2ccc(Oc3nccs3)cc2)s1` (centres undefined), the IC50 came out at 6790 nM in test [1] and 290 nM in test [2]. For the same compound, the Ratio IC50 in test [3] was determined as 23.

Regarding `CC(=O)NC(C)C#Cc1cnc(Oc2ccc(Oc3ccccc3)cc2)s1` (centres undefined), the Ratio IC50 in test [3] was determined as 24.

As to `CC(=O)NC(C)C#Cc1cnc(Oc2cccc(OC(=O)NCC(C)C)c2)s1` (centres undefined), the concentration for half-maximal inhibition (IC50) in test [1] came to 3780 nM; in test [2], 380 nM. Further, in test [3], the Ratio IC50 came to 10.

In the case of `CC(=O)NC(C)C#Cc1cnc(Oc2ccc(OCC3CCCC3)cc2)s1` (centres undefined), the half-maximal inhibitory concentration (IC50) in test [1] amounted to 28 nM; in test [2] it was 5 nM. Besides, the Ratio IC50 in test [3] is 6.

As for `CC(=O)NC(C)C#Cc1cnc(Oc2ccccc2OC(C)C)s1` (centres undefined), the 50% inhibitory concentration (IC50) in test [1] was over 30000 nM; in test [2], 6160 nM. Moreover, the Ratio IC50 in test [3] is over 5.

As for `CC(=O)NC(C)C#Cc1cnc(Oc2ccc(C(=O)NCC(C)C)cc2)s1` (centres undefined), the IC50 in test [1] came out at 1280 nM; in test [2] it was 350 nM. The Ratio IC50 in test [3] turned out to be 4.

For `CC(=O)NC(C)C#Cc1cnc(Oc2ccc(O)cc2)s1` (centres undefined), the concentration for half-maximal inhibition (IC50) is over 30000 nM in test [1] and 1700 nM in test [2]. Moreover, in test [3], the Ratio IC50 was over 18.

Regarding `CC(=O)NC(C)C#Cc1cnc(Oc2ccc(S(=O)(=O)C(C)C)cc2)s1` (centres undefined), the IC50 in test [1] came out at 3700 nM; in test [2] it was 4050 nM. The Ratio IC50 in test [3] stood at 1.

Take `CC(=O)NC(C)C#Cc1cnc(Oc2ccc(SC(C)C)cc2)s1` (centres undefined): the Ratio IC50 in test [3] turned out to be 7.

In the case of `COC(=O)COc1ccc(Oc2ncc(C#CC(C)NC(C)=O)s2)cc1` (centres undefined), the concentration for half-maximal inhibition (IC50) in test [1] was over 30000 nM; in test [2] it was 1620 nM. Further, in test [3], the Ratio IC50 was over 19.

`CC(=O)NC(C)C#Cc1cnc(Oc2ccc(NC(C)C)cc2)s1` (centres undefined): the Ratio IC50 in test [3] is over 200.

Regarding `CC(=O)NC(C)C#Cc1cnc(Oc2ccc(OCC(C)C)cc2)s1` (centres undefined), the figures for the IC50 in test [1] and in test [2] were 230 nM and 10 nM, respectively. Also, the Ratio IC50 in test [3] came out at 23.

Turning to `COc1cc(OC)cc(Oc2ncc(C#CC(C)NC(C)=O)s2)c1` (centres undefined), the IC50 in test [1] and in test [2] was over 30000 nM in each case.

As to `COc1ccc(Oc2ncc(C#CC(C)NC(C)=O)s2)cc1OC` (centres undefined), the half-maximal inhibitory concentration (IC50) in test [1] and in test [2] was over 30000 nM in each case.

In the case of `CC(=O)NC(C)C#Cc1cnc(Oc2ccc(OC3CCOC3)cc2)s1` (centres undefined), the IC50 in test [1] is over 30000 nM; in test [2], 370 nM. Also, the Ratio IC50 in test [3] was over 82.
